Test results published in patent US20250034151A1, “WEE1 INHIBITOR, PREPARATION THEREFOR, AND USE THEREOF” (JIANGSU TASLY DIYI PHARMACEUTICAL CO., LTD., priority 2022, published 2025).

Assays:
H1299 cells = test: Anti-proliferative effect on H1299 cells by Cell Titer-Glo; format: cell-based; conditions: Homo sapiens, NCI-H1299, 72 h, 3 days, read-out: H1299 (IC50, inhibition of proliferation in vitro)
Protocol: (§1) Test Example 2: Evaluation of Cell Proliferation Inhibitory Activity
1. Evaluation of the Anti-Proliferative Effect of Compounds on H1299 Cells by the Cell Titer-Glo Method
(§2) Compound solutions of different concentration gradients were prepared. […] The cell growth group without compound was used as a positive control (maximum signal control) and the medium was used as a negative control (minimum signal control), while ensuring that the final level of DMSO in each reaction well was 0.2%. After removing the medium from the 384-well plate, 25 ul of the configured compound at different concentrations was transferred into the well plate and the compound and cells were incubated in the cell incubator at 37° C. with 5% CO2 for 3 days.
(§3) The 384-well plates were removed from the cell incubator and allowed to equilibrate for 1h to room temperature. 25 ul of Cell Titer-Glo assay was added to each well, lysed on a shaker for 2 min and then read out (Luminescence) using a BMG PHERAStar after 10 min incubation. Calculate the inhibition rate from the luminescence signal: first calculate the average of the positive control (maximum signal control) and the negative control (minimum signal control).
(§4) was used to calculate the rate of inhibition of the cells by different concentrations of the compounds. The IC50 of the compound on cell activity inhibition was calculated by fitting a log(inhibitor) vs. response-Variable slope model to GraphPad Prism 6. The fitted equation was: Y=Bottom+(Top−Bottom)/(1+10^((Log IC50−X)*HillSlope)), where Y represents the rate of inhibition and X represents the concentration of the known compound after Log.
(§5) The results of the in vitro anti-cell proliferation assays of H1299 and MIA Paca-2 for the example compounds according to the method described above are shown in Table 2, wherein the IC50 of each compound was determined and classified according to the description as follows: […]

Wee1 protein = biological target: T1, Wee1 protein (Homo sapiens, UniProt P30291); test: Binding of compound to Wee1 protein and Tracer 178 by TR-FRET (Wee1 kinase inhibitory activity); conditions: 15 nM WEE1, 50 nM Tracer 178, read-out: IC50 (inhibitory activity against Wee1 kinase)
T1 construct: purchased Thermo Fisher PR7373A
Protocol: First, solutions of the compounds in different concentration gradients were prepared. The compounds were dissolved in DMSO and the compounds were diluted 4 folds with a total of 10 dose points and 2 parallel replicates for each concentration.
The IC50 for inhibition of enzyme activity by the compounds was then calculated using GraphPad Prism 6 and fitted with a log (inhibitor) vs. response-Variable slope mode. The fitting equation was: Y=Bottom+(Top−Bottom)/(1+10^((Log IC50−X)*HillSlope)), wherein Y represents the percentage of residual enzyme activity known and X represents the known concentration of compound after the logarithm.

MIA PaCa2 cells = test: Anti-proliferative effect on MIA PaCa2 cells by Cell Titer-Glo; format: cell-based; conditions: Homo sapiens, MIA PaCa-2, 72 h, 3 days, read-out: MIA PaCa 2 (IC50, inhibition of proliferation in vitro)
Protocol: as §1
2. Evaluation of the Anti-Proliferative Effect of Compounds on MIA PaCa2 Cells by the Cell Titer-Glo Method
as §2
as §3, with “1 h” for “1h”
as §4, with “Y=Bottom+(Top-Bottom)/(1+10^((Log” for “Y=Bottom+(Top−Bottom)/(1+10^((Log”, “wherein” for “where”
as §5

T1 sequence (P30291 whole entry): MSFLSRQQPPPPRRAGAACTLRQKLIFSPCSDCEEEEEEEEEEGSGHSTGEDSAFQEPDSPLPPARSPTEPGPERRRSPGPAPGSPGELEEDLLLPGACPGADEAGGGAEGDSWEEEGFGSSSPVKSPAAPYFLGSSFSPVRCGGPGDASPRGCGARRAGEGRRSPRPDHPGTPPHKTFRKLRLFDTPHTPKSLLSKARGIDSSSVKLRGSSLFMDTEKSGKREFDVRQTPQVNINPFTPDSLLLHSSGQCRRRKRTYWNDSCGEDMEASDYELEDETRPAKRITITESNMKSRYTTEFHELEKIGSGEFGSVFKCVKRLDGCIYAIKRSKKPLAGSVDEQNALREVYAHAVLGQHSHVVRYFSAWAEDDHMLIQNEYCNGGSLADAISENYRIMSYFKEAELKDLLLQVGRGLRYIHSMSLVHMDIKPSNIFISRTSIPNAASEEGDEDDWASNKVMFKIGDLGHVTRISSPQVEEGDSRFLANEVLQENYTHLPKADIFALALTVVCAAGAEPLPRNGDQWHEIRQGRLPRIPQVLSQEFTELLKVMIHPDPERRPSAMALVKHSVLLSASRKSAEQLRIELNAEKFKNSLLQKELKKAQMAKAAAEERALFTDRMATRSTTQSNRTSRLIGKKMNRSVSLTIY

SMILES	IC50 (H1299 cells) [nM]	IC50 (Wee1 protein) [nM]	IC50 (MIA PaCa2 cells) [nM]
C=CCn1c(=O)c2cnc(Nc3ccc(N4CCN(C)CC4)cc3)nc2n1-c1cccc(C2(S(C)(=O)=O)CC2)n1 [Compound 1]	2000 to 5000	5 to 10	–
C=CCn1c(=O)c2cnc(Nc3ccc(N4C[C@@H]5C[C@H]4CN5C)cc3)nc2n1-c1cccc(N=S(C)(C)=O)n1 [Compound 5]	100 to 1000	< 5	–
C=CCn1c(=O)c2cnc(Nc3ccc(OC4CN5CCC4CC5)cc3)nc2n1-c1cccc(N=S(C)(C)=O)n1 (centres unmarked) [Compound 7]	100 to 1000	< 5	–
C=CCn1c(=O)c2cnc(Nc3ccc(N(CC)CC(=O)NC)cc3)nc2n1-c1cccc(C(C)(C)O)n1 [Compound 13]	5000 to 10000	5 to 10	5000 to 10000
C=CCn1c(=O)c2cnc(Nc3ccc(N(CC)CC(=O)N4CCN(C)CC4)cc3)nc2n1-c1cccc(C(C)(C)O)n1 [Compound 14]	5000 to 10000	5 to 10	2000 to 5000
C=CCn1c(=O)c2cnc(Nc3ccc(-c4cc(=O)[nH]c5c4N4CCC5CC4)cc3)nc2n1-c1cccc(C(C)(C)O)n1 [Compound 16]	> 10000	10 to 100	> 10000
C=CCn1c(=O)c2cnc(Nc3ccc(N4CC5CCC(C4)O5)cc3)nc2n1-c1cccc(C(C)(C)O)n1 [Compound 17]	100 to 1000	5 to 10	1000 to 2000
C=CCn1c(=O)c2cnc(Nc3ccc(N4C[C@H]5C[C@@H]4CO5)cc3)nc2n1-c1cccc(C(C)(C)O)n1 [Compound 20]	100 to 1000	5 to 10	1000 to 2000
C=CCn1c(=O)c2cnc(Nc3ccc(N4CC5CC4CN5C4CCN(C)CC4)c(C)c3)nc2n1-c1cccc(C(C)(C)O)n1 (centres unmarked) [Compound 21]	1000 to 2000	10 to 100	100 to 1000
C=CCn1c(=O)c2cnc(Nc3ccc(N4CC5CC(CN(Cc6ccccc6)C5)C4)cc3)nc2n1-c1cccc(C(C)(C)O)n1 [Compound 22]	100 to 1000	10 to 100	1000 to 2000
C=CCn1c(=O)c2cnc(Nc3ccc(N(C)[C@H]4CN5CCC4CC5)cc3)nc2n1-c1cccc(C(C)(C)O)n1 [Compound 29]	> 10000	5 to 10	> 10000
C=CCn1c(=O)c2cnc(Nc3ccc(N4C[C@@H]5C[C@H]4CN5CC(F)(F)F)cc3)nc2n1-c1cccc(C(C)(C)O)n1 [Compound 30]	1000 to 2000	< 5	1000 to 2000
C=CCn1c(=O)c2cnc(Nc3ccc(N4CCOc5ccccc54)cc3)nc2n1-c1cccc(C(C)(C)O)n1 [Compound 31]	5000 to 10000	10 to 100	5000 to 10000
C=CCn1c(=O)c2cnc(Nc3ccc(C4CC45C(=O)C4CCN5CC4)cc3)nc2n1-c1cccc(C(C)(C)O)n1 (centres unmarked) [Compound 32]	2000 to 5000	10 to 100	2000 to 5000
C=CCn1c(=O)c2cnc(Nc3ccc(N4CC5CC(CN(CCOC)C5)C4)cc3)nc2n1-c1cccc(C(C)(C)O)n1 [Compound 34]	5000 to 10000	10 to 100	2000 to 5000
C=CCn1c(=O)c2cnc(Nc3ccc(C4(O)CCN(C)CC4)cc3)nc2n1-c1cccc(C(C)(C)O)n1 [Compound 35]	2000 to 5000	10 to 100	1000 to 2000
C=CCn1c(=O)c2cnc(Nc3ccc(-n4cc(N(C)C)cn4)cc3)nc2n1-c1cccc(C(C)(C)O)n1 [Compound 36]	1000 to 2000	10 to 100	1000 to 2000
C=CCn1c(=O)c2cnc(Nc3ccc(N4C[C@@H]5C[C@H]4CN5CCO)cc3)nc2n1-c1cccc(C(C)(C)O)n1 [Compound 38]	2000 to 5000	10 to 100	100 to 1000
C=CCn1c(=O)c2cnc(Nc3ccc(N4C[C@@H]5C[C@H]4CN5C(C)C)cc3)nc2n1-c1cccc(C(C)(C)O)n1 [Compound 41]	100 to 1000	10 to 100	100 to 1000
C=CCn1c(=O)c2cnc(Nc3ccc(N4[C@@H]5C[C@H]4CN(C)C5)cc3)nc2n1-c1cccc(C(C)(C)O)n1 [Compound 43]	2000 to 5000	10 to 100	2000 to 5000

SMILES	IC50 (H1299 cells) [nM]	IC50 (Wee1 protein) [nM]	IC50 (MIA PaCa2 cells) [nM]
C=CCn1c(=O)c2cnc(Nc3ccc(N4C[C@@H]5C[C@H]4CN5CCF)cc3)nc2n1-c1cccc(C(C)(C)O)n1 [Compound 44]	100 to 1000	5 to 10	100 to 1000
C=CCn1c(=O)c2cnc(Nc3cnn(-c4ccc(N(C)C)cc4)c3)nc2n1-c1cccc(C(C)(C)O)n1 [Compound 45]	> 10000	10 to 100	5000 to 10000
C=CCn1c(=O)c2cnc(Nc3ccc(C4CC45C(=O)C4CCN5CC4)cc3)nc2n1-c1cccc(N=S(C)(C)=O)n1 (centres unmarked) [Compound 47]	100 to 1000	< 5	100 to 1000
C=CCn1c(=O)c2cnc(Nc3ccc([C@H]4C[C@@]45C(=O)C4CCN5CC4)cc3)nc2n1-c1cccc(N=S(C)(C)=O)n1 [Compound 47a]	100 to 1000	10 to 100	1000 to 2000
C=CCn1c(=O)c2cnc(Nc3ccc([C@@H]4C[C@]45C(=O)C4CCN5CC4)cc3)nc2n1-c1cccc(N=S(C)(C)=O)n1 [Compound 47b]	2000 to 5000	10 to 100	2000 to 5000
C=CCn1c(=O)c2cnc(Nc3ccc(N4CCN(C)c5ccccc54)cc3)nc2n1-c1cccc(C(C)(C)O)n1 [Compound 50]	5000 to 10000	100 to 1000	> 10000
C=CCn1c(=O)c2cnc(Nc3ccc(-n4cc(N5CCCC5)cn4)cc3)nc2n1-c1cccc(C(C)(C)O)n1 [Compound 55]	1000 to 2000	10 to 100	1000 to 2000
C=CCn1c(=O)c2cnc(Nc3ccc(N4CC5CC(C4)N5C4COC4)cc3)nc2n1-c1cccc(C(C)(C)O)n1 [Compound 58]	100 to 1000	5 to 10	100 to 1000
C=CCn1c(=O)c2cnc(Nc3ccc(N4CC5CC(C4)N5C)cc3)nc2n1-c1cccc(C(C)(C)OC)n1 [Compound 60]	100 to 1000	5 to 10	100 to 1000
C=CCn1c(=O)c2cnc(Nc3ccc(N4CC5CC(C4)N5C4CN(C)C4)cc3)nc2n1-c1cccc(C(C)(C)O)n1 [Compound 63]	> 10000	1000 to 10000	> 10000
C=CCN1C2CC1CN(c1ccc(Nc3ncc4c(=O)n(CC=C)n(-c5cccc(C(C)(C)O)n5)c4n3)cc1)C2 [Compound 64]	100 to 1000	10 to 100	100 to 1000
C=CCn1c(=O)c2cnc(Nc3ccc(N4CC5CC(C4)N5CC)cc3)nc2n1-c1cccc(C(C)(C)O)n1 [Compound 65]	100 to 1000	5 to 10	100 to 1000
C=CCn1c(=O)c2cnc(Nc3ccc(N4CC5CC(C4)N5C(=O)OC)cc3)nc2n1-c1cccc(C(C)(C)O)n1 [Compound 69]	100 to 1000	10 to 100	–
C=CCn1c(=O)c2cnc(Nc3ccc(N4CCN(C)CC4)cc3)nc2n1-c1ccc2c(C(C)=O)cn(CC)c2n1 [Compound 70]	100 to 1000	5 to 10	–
C=CCn1c(=O)c2cnc(Nc3ccc(N4CCN(C)CC4)cc3)nc2n1-c1ccc2c(n1)N(CC)C(=O)C2(C)C [Compound 71]	2000 to 5000	10 to 100	–
C=CCn1c(=O)c2cnc(Nc3ccc(N4CCN(C)CC4)cc3)nc2n1-c1cc2ccccc2s1 [Compound 72]	5000 to 10000	10 to 100	–
C=CCn1c(=O)c2cnc(Nc3ccc(N4CCN(C)CC4)cc3)nc2n1-c1ccc2c(F)cn(CC)c2n1 [Compound 73]	1000 to 2000	10 to 100	–
C=CCn1c(=O)c2cnc(Nc3ccc(N4CCN(C)CC4)cc3)nc2n1-c1ccc2nc(C)n(CC)c2n1 [Compound 75]	1000 to 2000	10 to 100	–
C=CCn1c(=O)c2cnc(Nc3cc(F)c(N4CC5CC(C4)N5C)c(F)c3)nc2n1-c1cccc(C(C)(C)O)n1 [Compound 79]	> 10000	10 to 100	–
